Reference: patent US20140148500A1, “PROGRAMMABLE SELF-ASSEMBLED NANOSTRUCTURES BASED ON SIDECHAIN-MODIFIED PNA FOR THE MULTIVALENT DISPLAY OF LIGANDS” (priority 2010, published 2014)
Several values for one entry are separate records, joined by “and”; a condition that tells them apart may be missing. Identical values can stand only once.

System: C32 cells
Assay: Cell adhesion assay, IC50 of multivalent RGD constructs (method of Sipes et al.)
Type: cell-based
Details: read-out: IC50 Data (nM), RGD control result in parenthesis, unnormalized, control run alongside the data point it follows
From the text: Multi 1 indicates one PNA construct associated with the DNA. Multi 2 indicates two PNA construct associated with the DNA and so on. […] In the constructs depicted herein, the designator in parentheses (T5, for example) represents the number of thymine bases in the DNA sequence that is inserted to create a spacer between adjacent PNA binding portions of the DNA. T0 represents the absence of any spacer thymine bases. […] “x” indicates no data is available for that experiment. […] Constructs from Example 5 were utilized herein.

## N=C(N)NCCC[C@@H]1NC(=O)[C@H](CCCCN)NC(=O)[C@@H](Cc2ccccc2)NC(=O)[C@H](CC(=O)O)NC(=O)CNC1=O [RGD]
  IC50: 475 nM and 329 nM and 690 nM
